Test results from PubChem BioAssay (NCI).
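Briefly, cells in 96-well plates were exposed to five compound concentrations for 48 h, and endpoints were estimated by linear interpolation. TGI is the concentration that stops growth completely.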

Tests used:
Test in all cases: inhibition of tumour cell growth, NCI panel, 48 h
EKVX NSCLC = system: EKVX NSCLC
UACC-257 melanoma = system: UACC-257 melanoma
SK-MEL-28 melanoma = system: SK-MEL-28 melanoma
TK-10 renal = system: TK-10 renal
LOX IMVI melanoma = system: LOX IMVI melanoma
HOP-18 NSCLC = system: HOP-18 NSCLC
M19-MEL melanoma = system: M19-MEL melanoma
CCRF-CEM leukemia = system: CCRF-CEM leukemia
OVCAR-8 ovarian = system: OVCAR-8 ovarian
COLO 205 colon = system: COLO 205 colon
A498 renal = system: A498 renal
RXF-631 renal = system: RXF-631 renal
NCI-H23 lung = system: NCI-H23 lung
K-562 leukemia = system: K-562 leukemia
A549 NSCLC = system: A549 NSCLC
SF-268 CNS = system: SF-268 CNS
ACHN renal = system: ACHN renal
RXF 393 renal = system: RXF 393 renal
SF-295 CNS = system: SF-295 CNS
SK-MEL-2 melanoma = system: SK-MEL-2 melanoma
LXFL 529 NSCLC = system: LXFL 529 NSCLC
SNB-78 CNS = system: SNB-78 CNS
XF 498 CNS = system: XF 498 CNS
UO-31 renal = system: UO-31 renal
KM20L2 colon = system: KM20L2 colon
SNB-19 CNS = system: SNB-19 CNS
HOP-62 NSCLC = system: HOP-62 NSCLC
SNB-75 CNS = system: SNB-75 CNS
NCI-H522 lung = system: NCI-H522 lung
OVCAR-3 ovarian = system: OVCAR-3 ovarian
DMS 273 small cell lung = system: DMS 273 small cell lung
DMS 114 small cell lung = system: DMS 114 small cell lung
SK-OV-3 ovarian = system: SK-OV-3 ovarian
U251 CNS = system: U251 CNS
HL-60(TB) leukemia = system: HL-60(TB) leukemia
IGROV1 ovarian = system: IGROV1 ovarian
HCC-2998 colon = system: HCC-2998 colon
786-0 renal = system: 786-0 renal
MOLT-4 leukemia = system: MOLT-4 leukemia
NCI-H460 lung = system: NCI-H460 lung
KM12 colon = system: KM12 colon
DLD-1 colon = system: DLD-1 colon
HOP-92 NSCLC = system: HOP-92 NSCLC
SF-539 CNS = system: SF-539 CNS
MALME-3M melanoma = system: MALME-3M melanoma
OVCAR-5 ovarian = system: OVCAR-5 ovarian
HT29 colon = system: HT29 colon
SW-620 colon = system: SW-620 colon
HCT-116 colon = system: HCT-116 colon
RPMI-8226 leukemia = system: RPMI-8226 leukemia
HCT-15 colon = system: HCT-15 colon
SR leukemia = system: SR leukemia
OVCAR-4 ovarian = system: OVCAR-4 ovarian
CAKI-1 renal = system: CAKI-1 renal
SN12C renal = system: SN12C renal
UACC-62 melanoma = system: UACC-62 melanoma
SK-MEL-5 melanoma = system: SK-MEL-5 melanoma
M14 melanoma = system: M14 melanoma

Measured: TGI

O=[N+]([O-])c1cccc(C2=NN(c3ccccc3)C3c4ccccc4OCC23)c1 (stereo unspecified)
not listed: HCT-15 colon | SR leukemia | OVCAR-4 ovarian | CAKI-1 renal | SN12C renal | UACC-62 melanoma | SK-MEL-5 melanoma | M14 melanoma
> 100 µM: all other assays above

O=C1NC2(CCCC2)C2CCCCC12O (stereo unspecified)
not listed: KM20L2 colon | HCC-2998 colon
> 100 µM: all other assays above
